In this assay the target is T1, hGPR120 (Homo sapiens, UniProt Q5NUL3).
T1 construct: expressed in transfected cells; host or cells: CHO-K1
T1 sequence (Q5NUL3 1-361): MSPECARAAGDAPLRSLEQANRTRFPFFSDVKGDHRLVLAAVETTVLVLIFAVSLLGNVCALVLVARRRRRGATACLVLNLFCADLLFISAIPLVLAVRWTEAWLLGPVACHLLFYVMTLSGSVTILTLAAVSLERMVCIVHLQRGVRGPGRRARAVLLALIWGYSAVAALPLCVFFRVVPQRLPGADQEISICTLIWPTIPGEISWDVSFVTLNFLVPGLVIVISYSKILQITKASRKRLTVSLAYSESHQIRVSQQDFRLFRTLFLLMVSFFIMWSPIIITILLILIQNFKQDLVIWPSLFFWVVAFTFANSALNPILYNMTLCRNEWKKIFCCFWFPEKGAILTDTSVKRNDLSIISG
In words: Measurement of Activity of GPR120 Agonist (Cell-Based Assay), Calcium 5 dye fluorescence. As to conditions: CHO-K1 cells expressing Ga16 and hGPR120. In short, it runs like this: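 Agonist-evoked calcium signal, expressed as percent relative to DMSO-only wells, read at 485/525 nm after serial-dilution addition (0.5% DMSO final). Cells were hGPR120/Gα16 CHO-K1, seeded 18 h earlier and dye-loaded for 1 h at 37°C.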

Bounds are passed on as bounds.

Data on 16 molecules can be found in patent publication US11261186B2, “Biaryl derivative as GPR120 agonist” (LG CHEM, LTD., priority 2014, dated 2022).

For `O=C(O)CCCOc1c(Cl)cc(-c2cccc(OC3CCC3)n2)cc1Cl` [Example 386, 4-[2,6-dichloro-4-[6-(cyclobutoxy)-2-pyridyl]phenoxy]butanoic acid], the concentration for a half-maximal effect (EC50) was under 200 nM. As for `O=C(O)C[C@@H]1CCN(c2c(F)cc(-c3cccnc3OC3CCCC3)cc2F)C1` [Example 137, 2-[(3S)-1-[4-[2-(cyclopentoxy)-3-pyridyl]-2,6-difluoro-phenyl]pyrrolidin-3-yl]acetic acid], the 50% effective concentration (EC50) was under 200 nM. Under `O=C(O)C1CC1COc1c(F)cc(-c2cc(F)cc(OC3CCC3)c2)cc1F` (stereo not shown) [Example 541, 2-(3′-cyclobutoxy-3,5,5′-trifluoro-biphenyl-4-yloxymethyl)-cyclopropanecarboxylic acid] stands under 200 nM.

As for `Cc1ccc(OCC2CCC2)cc1-c1cc(F)c(N(C)CCCC(=O)O)c(F)c1` [Example 529, 4-[(5′-cyclobutylmethoxy-3,5-difluoro-2′-methyl-biphenyl-4-yl)-methyl-amino]-butyric acid], the EC50 fell in the range of 200 to 2000 nM. For the molecule `O=C(O)C1CC1COc1c(F)cc(-c2cncc(OC3CCC3)n2)cc1F` (stereo not shown) [Example 550, 2-[4-(6-cyclobutoxy-pyrazin-2-yl)-2,6-difluoro-phenoxymethyl]-cyclopropanecarboxylic acid], the EC50 is under 200 nM. Under `O=C(O)CCC1CCc2cc(-c3cccc(OC4CCCC4)n3)ccc2O1` (stereo not shown) [Example 9, 3-[6-(6-cyclopentyloxy-pyridin-2-yl)-chroman-2-yl]-propionic acid] stands under 200 nM; under `O=C(O)CC1CCN(c2c(F)cc(-c3ccc(COCC4CC4)s3)cc2F)CC1` [Example 569, {1-[4-(5-cyclomethoxymethyl-thiophen-2-yl)-2,6-difluoro-phenyl]-piperidin-4-yl}-acetic acid], 2000 to 20000 nM. Under `O=C(O)CCCOc1c(F)cc(-n2ccc3ccc(OC4CCC4)cc32)cc1F` [Example 476, 4-[4-[6-(cyclobutoxy)indol-1-yl]-2,6-difluoro-phenoxy]butanoic acid] stands under 200 nM; under `CC(CCCC(=O)O)c1c(F)cc(-c2cccc(OCC3CC3)c2)cc1F` (stereo not shown) [Example 413, 5-(3′-cyclopropylmethoxy-3,5-difluoro-biphenyl-4-yl)-hexanoic acid], under 200 nM.

Turning to `O=C(O)CCC1CCc2cc(-c3cccnc3OC3CCC3)ccc2S1` (stereo not shown) [Example 278, 3-[6-(2-cyclobutoxy-pyridin-3-yl)-thiochroman-2-yl]-propionic acid], the EC50 was under 200 nM.

In the case of `CN(CCCC(=O)O)c1c(F)cc(-c2cccc(OC3CCC3)n2)cc1F` [Example 205, 4-{[4-(6-cyclobutoxy-pyridin-2-yl)-2,6-difluoro-phenyl]-methyl-amino}-butyric acid], the 50% effective concentration (EC50) is under 200 nM.

As to `O=C(O)CCCOc1c(F)cc(-c2csc(COC3CCC3)c2)cc1F` [Example 573, 4-[4-(5-cyclobutoxymethyl-thiophen-3-yl)-2,6-difluoro-phenoxy]-butanoic acid], the EC50 was under 200 nM. Consider `O=C(O)CCCOc1c(F)cc(-c2cccc3c2OC(F)(F)O3)cc1F` [Example 290, 4-[4-(2,2-difluoro-benzo[1,3]dioxol-4-yl)-2,6-difluoro-phenoxy]-butyric acid], for which the EC50 was under 200 nM. As for `Cc1cc(OCC2CC2)nc(-c2cc(F)c(OCCCC(=O)O)c(F)c2)n1` [Example 432, 4-[4-(4-cyclopropylmethoxy-6-methyl-pyrimidin-2-yl)-2,6-difluoro-phenoxy]-butyric acid], the figure is under 200 nM.

Consider `Cc1cc(OC2CCC2)nc(-c2cc(F)c(OCC3CC3C(=O)O)c(F)c2)c1` (stereo not shown) [Example 548, 2-[4-(6-cyclobutoxy-4-methyl-pyridin-2-yl)-2,6-difluoro-phenoxymethyl]-cyclopropanecarboxylic acid], for which the EC50 is under 200 nM. As for `O=C(O)CC1CCN(c2c(F)cc(-c3ccc(Cl)c(OC4CCC4)n3)cc2F)CC1` [Example 311, 2-[1-[4-[5-chloro-6-(cyclobutoxy)-2-pyridyl]-2,6-difluoro-phenyl]-4-piperidyl]acetic acid], the figure is 200 to 2000 nM.

In general, EC50 refers to the concentration at which the effect is half-maximal.
